In ChEMBL document CHEMBL1201862, “PubChem BioAssay data set” (2004):
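Five compound concentrations were applied to cells in 96-well plates for 48 hours; endpoints were derived by simple linear interpolation of the resulting dose-response curve. GI50: concentration for 50% inhibition of growth.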 Active and inactive are the calls of the source. No stated cut-off is given here; in the data, active = GI50 up to about 1.1 µM and inactive = higher.

Assays:
Assay in all cases: NCI tumour cell line growth inhibition, 48 h
[1] = tested on: UO-31
[2] = tested on: HL-60
[3] = tested on: IGROV-1
[4] = tested on: SNB-75
[5] = tested on: LOX IMVI
[6] = tested on: NCI-H23
[7] = tested on: OVCAR-4
[8] = tested on: SK-MEL-28
[9] = tested on: UACC-62
[10] = tested on: HOP-92
[11] = tested on: ACHN
[12] = tested on: M14
[13] = tested on: U-251
[14] = tested on: SF-295
[15] = tested on: SK-MEL-5
[16] = tested on: HOP-62
[17] = tested on: COLO 205
[18] = tested on: NCI-H226

Measured: GI50

C/C=C/C=C/[C@H]1Cc2cc(O)cc(O)c2O1
inactive: [1] 29.4 µM | [2] 26.1 µM | [3] > 100 µM | [4] > 100 µM | [5] 47.9 µM | [6] 51.5 µM | [7] 35 µM | [8] > 100 µM | [9] 22.9 µM | [10] > 100 µM | [11] 52.5 µM | [12] 37.3 µM | [13] 59.2 µM | [14] 57.3 µM | [15] 49.7 µM | [16] > 100 µM | [17] 55 µM

O=C1N=C(Nc2ccccc2Cl)SC1C(=O)Nc1ccc([N+](=O)[O-])cc1[N+](=O)[O-] (stereo not drawn)
inactive: [18] 82.8 µM | [1] 72.4 µM | [2] > 100 µM | [3] > 100 µM | [4] 66.1 µM | [6] > 100 µM | [7] > 100 µM | [8] > 100 µM | [9] > 100 µM | [10] 32.5 µM | [11] > 100 µM | [12] > 100 µM | [13] > 100 µM | [14] > 100 µM | [15] > 100 µM | [16] > 100 µM | [17] > 100 µM

O=C1[C@H]2ON(c3ccccc3)C(c3ccc(Cl)cc3)[C@H]2C(=O)N1c1ccc(Cc2ccc(N3C(=O)[C@@H]4ON(c5ccccc5)C(c5ccc(Cl)cc5)[C@@H]4C3=O)cc2)cc1 (stereo partly drawn)
inactive: [18] > 100 µM | [1] > 100 µM | [2] > 100 µM | [3] > 100 µM | [4] > 100 µM | [5] > 100 µM | [6] > 100 µM | [7] > 100 µM | [8] > 100 µM | [9] > 100 µM | [11] > 100 µM | [12] 18.7 µM | [13] > 100 µM | [14] > 100 µM | [15] 61.7 µM | [16] > 100 µM | [17] > 100 µM

O=C(O)c1ccccc1[Se][Se]c1ccccc1C(=O)O
inactive: [18] 1.9 µM | [1] 2.73 µM | [2] 35.9 µM | [3] 51.6 µM | [4] 29.5 µM | [5] 24.1 µM | [6] 47.5 µM | [8] 38.1 µM | [9] 27.5 µM | [10] 39 µM | [11] > 100 µM | [12] 72.9 µM | [13] 40.8 µM | [14] 28.4 µM | [15] > 100 µM | [16] 29.7 µM | [17] > 100 µM

O=c1[nH]c(=O)n(C2CC(O)C(CO)O2)cc1C#Cc1cc(F)cc(F)c1 (stereo not drawn)
inactive: [18] > 100 µM | [1] > 100 µM | [3] > 100 µM | [4] 48.9 µM | [5] > 100 µM | [6] > 100 µM | [7] > 100 µM | [8] > 100 µM | [9] > 100 µM | [11] > 100 µM | [12] > 100 µM | [13] > 100 µM | [14] > 100 µM | [15] > 100 µM | [16] > 100 µM | [17] > 100 µM

CC(=O)NCc1c(C(N)=O)ncn1Cc1ccccc1
inactive: [2] > 100 µM | [3] > 100 µM | [4] > 100 µM | [5] > 100 µM | [6] > 100 µM | [7] > 100 µM | [8] > 100 µM | [9] > 100 µM | [10] > 100 µM | [11] > 100 µM | [12] > 100 µM | [13] > 100 µM | [14] > 100 µM | [15] > 100 µM | [16] > 100 µM | [17] > 100 µM

COc1ccc2cc1Oc1ccc(cc1)CC1c3cc4c(cc3CCN1C)Oc1c(OC)cc3c(c1O4)C(C2)N(C)CC3 (stereo not drawn)
inactive: [18] 1.72 µM | [2] 1.96 µM | [3] > 10 µM | [4] 2.56 µM | [5] 1.46 µM | [6] 4.26 µM | [7] 1.47 µM | [8] 1.49 µM | [9] 3.21 µM | [11] 4.78 µM | [12] 1.64 µM | [13] 2.26 µM | [14] 1.98 µM | [15] 8.57 µM | [16] 12.6 µM | [17] 1.43 µM

N#Cc1c(-c2ccco2)cc(-c2ccc(NCc3nc4ccccc4[nH]3)cc2)nc1N
inactive: [1] 16.6 µM | [2] 20 µM | [3] 23 µM | [4] 26.4 µM | [5] 18.7 µM | [6] 20.2 µM | [7] 22.8 µM | [8] 27.5 µM | [9] 16.6 µM | [10] 21.4 µM | [11] 26.5 µM | [12] 19.5 µM | [13] 25.9 µM | [14] 19.5 µM | [15] 16 µM | [16] 26.7 µM | [17] 21.6 µM

COc1cc(/C=C(\NC(=O)c2ccccc2)c2nc3c(O)nc(S)nc3[nH]2)cc(OC)c1OC
inactive: [1] > 100 µM | [2] > 100 µM | [3] > 100 µM | [6] > 100 µM | [7] > 100 µM | [8] > 100 µM | [9] > 100 µM | [10] 59.3 µM | [11] > 100 µM | [12] > 100 µM | [13] > 100 µM | [14] > 100 µM | [15] > 100 µM | [17] > 100 µM

CCCC(Sc1ccccc1)P(=O)(c1ccccc1)c1ccccc1 (stereo not drawn)
inactive: [1] > 100 µM | [2] 22.3 µM | [4] 28.6 µM | [5] 35.6 µM | [6] 35.6 µM | [7] 37.8 µM | [8] 42.1 µM | [9] 15.1 µM | [10] 21.8 µM | [11] 19.8 µM | [12] 35.2 µM | [13] 23.5 µM | [14] 27.8 µM | [15] 25.4 µM | [16] 46.6 µM | [17] 31.4 µM

COC(=O)c1nc(C(=O)OC)c2c([nH]c3ccccc32)c1C(=O)OC
inactive: [18] 37.7 µM | [1] 21.3 µM | [3] > 100 µM | [4] 41.5 µM | [5] 58.5 µM | [6] > 100 µM | [7] > 10 µM | [8] 88.9 µM | [9] 85.1 µM | [10] > 100 µM | [12] > 100 µM | [13] 99.8 µM | [14] 91.4 µM | [15] 9.79 µM | [16] > 100 µM | [17] > 100 µM

COc1ccc2[nH]c3c(c2c1)[C@H](C)C[C@@H]1C(=O)N(c2ccccc2)C(=O)[C@H]31
inactive: [1] 36.2 µM | [2] > 100 µM | [3] 31.8 µM | [4] 21.4 µM | [5] 25.2 µM | [6] 22.3 µM | [7] 20.7 µM | [8] > 100 µM | [9] 44.1 µM | [10] 14.9 µM | [11] 37.8 µM | [12] 35.6 µM | [13] 15.5 µM | [14] 26 µM | [15] 39.4 µM | [16] 24 µM | [17] 51.3 µM

CC(C)CS(=O)(=O)/C(=C(\c1ccc(Br)cc1)S(=O)(=O)CC(C)C)c1ccc(Br)cc1
inactive: [18] > 100 µM | [1] > 100 µM | [3] 15.6 µM | [4] 38.3 µM | [5] > 100 µM | [6] > 100 µM | [7] > 100 µM | [8] > 100 µM | [9] > 100 µM | [10] > 100 µM | [11] > 100 µM | [12] > 100 µM | [13] > 100 µM | [14] > 100 µM | [15] 1.41 µM | [16] > 100 µM | [17] > 100 µM

CS(=O)(=O)c1c(N)c2nc(Cl)cn2c2nc3ccccc3nc12
inactive: [18] > 100 µM | [1] > 100 µM | [3] > 100 µM | [4] 81.3 µM | [5] > 100 µM | [6] 68.9 µM | [7] > 100 µM | [8] > 100 µM | [9] > 100 µM | [11] > 100 µM | [12] > 100 µM | [13] > 100 µM | [14] > 100 µM | [15] > 100 µM | [16] > 100 µM | [17] > 100 µM

Cc1ccc(C)c(NC(=O)CC/C(=N\NC(=O)C(=O)NN)C(C)C(=O)c2ccc(O)cc2)c1 (stereo not drawn)
inactive: [18] > 100 µM | [1] > 100 µM | [3] > 100 µM | [4] > 100 µM | [5] > 100 µM | [6] > 100 µM | [7] > 100 µM | [8] > 100 µM | [9] > 100 µM | [10] > 100 µM | [11] > 100 µM | [12] > 100 µM | [13] > 100 µM | [14] > 100 µM | [15] > 100 µM | [16] > 100 µM | [17] > 100 µM

COc1ccc(/C=C2\CCC(CCN(C)C)(C3=CCCC3)C2=O)cc1Br (stereo not drawn)
inactive: [18] 16.9 µM | [1] 5.35 µM | [2] 2.52 µM | [3] 4.54 µM | [4] 4.49 µM | [5] 4.06 µM | [6] 13.9 µM | [7] 3.68 µM | [8] 2.76 µM | [10] 2.97 µM | [11] 9.29 µM | [12] 1.79 µM | [13] 5.82 µM | [14] 3.85 µM | [15] 1.71 µM | [16] 14.5 µM | [17] 1.58 µM
